{
  "source": "paper PMC10730845",
  "about": "“Endoxifen downregulates AKT phosphorylation through protein kinase C beta 1 inhibition in ERα+ breast cancer” (NPJ Breast Cancer, 2023)",
  "key": {"MDAMB436 cells": {"system": "MDAMB436 cells", "experiment": "Crystal violet growth assay, MDAMB436", "assay_type": "cell-based, human", "details": "day seven", "text": "(§1) Supplementary Figure 8. […]\n(§2) ANOVA. b, Effects of ENDX on cell proliferation at the indicated concentrations on day seven of\n(§3) treatment. […]"}, "[1]": {"system": "ERα+/HER2- metastatic breast cancer", "details": "cited from earlier work"}, "PKC zeta (PKCz)": {"target": "PKC zeta (PKCz) (Homo sapiens, UniProt Q05513)", "sequence (Q05513 whole entry)": "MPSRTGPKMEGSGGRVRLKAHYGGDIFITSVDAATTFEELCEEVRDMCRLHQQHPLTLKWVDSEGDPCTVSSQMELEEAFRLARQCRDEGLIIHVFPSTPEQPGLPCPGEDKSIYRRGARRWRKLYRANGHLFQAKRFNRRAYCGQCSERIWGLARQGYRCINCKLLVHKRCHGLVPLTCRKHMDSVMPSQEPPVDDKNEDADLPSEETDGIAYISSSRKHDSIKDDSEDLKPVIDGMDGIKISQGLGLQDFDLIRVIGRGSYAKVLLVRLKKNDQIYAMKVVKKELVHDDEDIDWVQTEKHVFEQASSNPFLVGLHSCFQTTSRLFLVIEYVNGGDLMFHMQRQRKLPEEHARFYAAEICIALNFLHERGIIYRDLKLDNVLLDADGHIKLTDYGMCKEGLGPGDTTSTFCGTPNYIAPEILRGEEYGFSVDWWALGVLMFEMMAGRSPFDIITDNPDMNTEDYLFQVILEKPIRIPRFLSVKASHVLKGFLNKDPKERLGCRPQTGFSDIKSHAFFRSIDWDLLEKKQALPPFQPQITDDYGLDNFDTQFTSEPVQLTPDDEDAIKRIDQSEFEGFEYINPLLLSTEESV", "experiment": "In vitro kinase assay, PKC zeta", "assay_type": "biochemical", "details": "10 μM ATP", "text": "(§4) Supplementary Table 4. In vitro kinase assay showing the IC 50 concentration of ENDX and\n(§5) of the 12 PKC family members.\n(§6) (1 picture or pasted object on this page, not shown here)"}, "[2]": {"system": "PKCβ1 and AKT^Ser473 phosphorylation in HEK293F cells", "experiment": "Immunoblot of PKCβ1 and pAKT^Ser473, HEK293F", "assay_type": "cell-based, human", "details": "5 µM, 2 h pretreatment, 100 nM insulin 1 h", "text": "(§7) To determine whether the observed effects of ENDX on PKCβ1 degradation and AKT^Ser473 phosphorylation inhibition are dependent on the presence of ERα, we additionally evaluated ENDX effects on PKCβ1 degradation and AKT^Ser473 phosphorylation in the ER negative (ER-) MDAMB231 breast cancer cells and nonbreast HEK293F cells, a human embryonic kidney cell line, both of which express higher amounts of PKCβ1 compared to ERα+ MCF7AC1 cells (Supplementary Fig. 5a). […] To determine whether the addition of ERα to the MDAMB231 cell line could facilitate ENDX effects on PKCβ1, we performed doxycycline (dox)-induced ERα protein expression in MDAMB231 cells and evaluated ENDX effects on PKCβ1 using the above-mentioned experimental conditions. […] Additionally, we pretreated MDAMB231 and HEK293F cells with or without 5 µM ENDX for 1 h followed by 0 or 200 nM PMA treatment for 20 min and evaluated effects on PKCβ1.\n(§8) Supplementary Figure 5. Effects of ENDX on PKCβ1, phospho -PKCB1Ser661 and phospho-AKTSer473 expression levels in ERα- breast cancer cells. a, Basal expression of PKCβ1 and ERα in the indicated cell lines. […]"}, "MDAMB231 cells [3]": {"system": "MDAMB231 cells", "experiment": "IncuCyte Annexin V apoptosis assay, MDAMB231", "assay_type": "cell-based, human", "details": "CSS medium, 48 h, 0–10 µM tested; no apoptosis below the highest concentration", "experimental": "Supplementary Figure 8. ENDX neither induces apoptosis nor inhibit growth of ER - breast cancer cells. a, MDAMB231 cells grown in CSS medium were co -treated with vehicle control or the indicated ENDX concentrations, IncuCyte Annexin V green and NucLight red reagents in CSS medium for 48 hours. The apoptosis graphs are presented as the green object count […]\nsoftware. Cells were plated at a density of 2000 cells per well. Data represents the mean of six"}, "PKCβ1 in MCF7AC1 cells": {"system": "PKCβ1 in MCF7AC1 cells", "experiment": "Immunoblot of PKCβ1 and pPKCβ1^Ser661, MCF7AC1", "assay_type": "cell-based, human", "details": "serum starved; for Effect on PMA-stimulated PKCβ1^Ser661 phosphorylation: 2 h pretreatment, 200 nM PMA 20 min", "experimental": "The ENDX hydrochloride utilized in this study was synthesized in collaboration between Mayo Clinic and National Institute of Health (NIH). Estrogen deprived MCF7AC1 were treated with vehicle control or ENDX (National Cancer Institute) for 24 h. For the phorbol 12-myristate 13-acetate (PMA) (LC Laboratories, #P-1680) experiments, MCF7AC1 cells were maintained in serum-free medium for 24 h prior to pretreatment with vehicle or ENDX for 2 h followed by treatment with 20 or 200 nM PMA for 20 min. For the insulin (Sigma-Aldrich, #I0516) experiments, MCF7AC1 and T47D cells were maintained in serum-free medium for 24 h prior to pretreatment with vehicle control or drugs for 2 h followed by treatment with 100 nM insulin for 1 h.\nProtein lysates were prepared using the RIPA lysis buffer system (ChemCruz #sc-24948) and quantified using the DC^TM Protein Assay reagents (Bio-Rad #5000112). Equal amounts of protein lysates were separated on 10% Criterion gels (Bio-Rad #3450112), transferred to PVDF membranes (Bio-Rad #1620177), blocked in TBST-5% milk and probed with primary antibodies listed in Supplementary Table 5, at the indicated dilutions. Membranes were incubated with HRP-conjugated anti-rabbit (CST #7074) or anti-mouse (CST #7076) secondary antibodies and visualized using chemiluminescent West Pico (Thermo Scientific #34580) or West Femto (Thermo Scientific #34096) reagents and a Li-Cor Odyssey® XF imager. Protein lysates from the MCF7AC1 xenograft model were obtained from a previous study. Quantitation of the protein bands signal intensity was performed using the NIH ImageJ image analysis software (https://imagej.nih.gov/ij///index.html). For the quantitation of the phospho protein levels, we first normalized total protein levels to β-actin loading control and used these values to normalize the phospho protein levels and compared change in protein expression levels relative to vehicle control normalized to 1.0. For the quantitation of total protein levels, we normalized the total protein levels to β-actin and compared change in expression levels relative to vehicle control normalized to 1.0. All blots were processed in parallel and derived from the same experiments. Unprocessed immunoblot images are provided in Supplementary Figs. 9–13."}, "MDAMB231 cells [4]": {"system": "MDAMB231 cells", "experiment": "Crystal violet growth assay, MDAMB231", "assay_type": "cell-based, human", "details": "0–10 µM tested, day seven", "text": "as §1, §2, §3"}, "[5]": {"details": "cited from earlier work"}, "PKC eta (PKCh)": {"target": "PKC eta (PKCh) (Homo sapiens, UniProt P24723)", "sequence (P24723 whole entry)": "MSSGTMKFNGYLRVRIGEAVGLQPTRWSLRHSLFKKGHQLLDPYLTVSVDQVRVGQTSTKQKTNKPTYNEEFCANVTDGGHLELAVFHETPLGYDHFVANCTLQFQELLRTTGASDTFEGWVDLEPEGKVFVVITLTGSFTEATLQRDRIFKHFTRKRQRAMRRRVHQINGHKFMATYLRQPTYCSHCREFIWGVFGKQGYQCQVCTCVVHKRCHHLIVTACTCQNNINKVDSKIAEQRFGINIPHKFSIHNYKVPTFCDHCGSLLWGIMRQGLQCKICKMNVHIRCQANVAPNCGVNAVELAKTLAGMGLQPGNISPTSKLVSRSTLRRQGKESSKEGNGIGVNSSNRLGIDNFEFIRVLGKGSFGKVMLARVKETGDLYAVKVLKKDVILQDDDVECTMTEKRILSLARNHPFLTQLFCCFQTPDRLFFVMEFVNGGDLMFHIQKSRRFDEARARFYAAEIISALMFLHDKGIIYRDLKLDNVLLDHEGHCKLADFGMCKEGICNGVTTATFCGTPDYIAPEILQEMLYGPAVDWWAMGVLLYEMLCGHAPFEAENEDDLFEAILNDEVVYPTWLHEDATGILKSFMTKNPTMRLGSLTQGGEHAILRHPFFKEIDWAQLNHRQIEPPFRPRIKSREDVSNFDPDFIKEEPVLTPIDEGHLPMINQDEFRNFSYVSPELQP", "experiment": "In vitro kinase assay, PKC eta", "assay_type": "biochemical", "details": "10 μM ATP", "text": "as §4, §5, §6"}, "PKC alpha (PKCa)": {"target": "PKC alpha (PKCa) (Homo sapiens, UniProt P17252)", "experiment": "In vitro kinase assay, PKC alpha", "assay_type": "biochemical", "details": "10 μM ATP", "text": "as §4, §5, §6"}, "[6]": {"system": "PKCβ1 and AKT^Ser473 phosphorylation in MDAMB231 cells", "experiment": "Immunoblot of PKCβ1 and pAKT^Ser473, MDAMB231", "assay_type": "cell-based, human", "details": "5 µM, 2 h pretreatment, 100 nM insulin 1 h", "text": "as §7, §8"}},
  "data": [
    {"molecule": "CC/C(=C(\\c1ccc(O)cc1)c1ccc(OCCNC)cc1)c1ccccc1", "note": "[ENDX, Z-endoxifen]", "values": [
      {"measurement": "Concentrations at which growth was inhibited", "setting": "MDAMB436 cells", "result": "> 7.5", "unit": "µM"},
      {"measurement": "PFS hazard ratio (HR) ENDX vs TAM, CDK4/6i naïve patients", "setting": "[1]; 95% CI 0.22–0.80", "result": 0.42},
      {"measurement": "PFS hazard ratio (HR) ENDX vs TAM, overall", "setting": "[1]; 95% CI 0.49–1.22", "result": 0.77},
      {"measurement": "PFS in CDK4/6 inhibitor naïve patients", "setting": "[1]; CDK4/6i naïve", "result": 7.2, "unit": "m"},
      {"measurement": "Progression free survival (PFS) overall", "setting": "[1]; women with ERα+/HER2- metastatic breast cancer progressed on endocrine therapy", "result": 4.3, "unit": "m"},
      {"measurement": "IC50", "setting": "PKC zeta (PKCz)", "result": 48.1, "unit": "µM"},
      {"measurement": "Effect on PKCβ1 protein levels", "setting": "[2]", "result": "did not impact PKCβ1 protein levels"},
      {"measurement": "Effect on insulin induced AKT^Ser473 phosphorylation", "setting": "[2]", "result": "did not inhibit this phosphorylation"},
      {"measurement": "Concentration at which apoptosis was induced", "setting": "MDAMB231 cells [3]", "result": 10, "unit": "µM"},
      {"measurement": "Effect on PKCβ1^Ser661 phosphorylation in insulin treated cells", "setting": "PKCβ1 in MCF7AC1 cells; 100 nM insulin 1 h", "result": "no effects on PKCβ1^Ser661 phosphorylation"},
      {"measurement": "Effect on PKCβ1 total protein in insulin treated cells", "setting": "PKCβ1 in MCF7AC1 cells; 100 nM insulin 1 h, ENDX 0.01, 0.1, 5 µM, TAM 0.1 µM, ICI 0.1 µM", "result": "reduced PKCβ1 total protein levels"},
      {"measurement": "Effect on PMA-stimulated PKCβ1^Ser661 phosphorylation", "setting": "PKCβ1 in MCF7AC1 cells; 5 μM", "result": "minimal"},
      {"measurement": "Effect on PMA-stimulated PKCβ1^Ser661 phosphorylation", "setting": "PKCβ1 in MCF7AC1 cells; 0.01, 0.1 μM", "result": "no"},
      {"measurement": "Concentration robustly reducing PKCβ1 total protein levels", "setting": "PKCβ1 in MCF7AC1 cells; PMA-stimulated, 0.01, 0.1 and 5 μM tested", "result": 5, "unit": "µM"},
      {"measurement": "Concentrations at which growth was inhibited", "setting": "MDAMB231 cells [4]", "result": "≥ 7.5", "unit": "µM"},
      {"measurement": "Effect on uterine weight and epithelial cell height", "setting": "[5]; intact rats", "result": "substantially lowered uterine weight and increased epithelial cell height"},
      {"measurement": "Uterotrophic potency", "setting": "[5]; ovariectomized Sprague-Dawley rats", "result": "less potent than estradiol in eliciting uterotrophic effects"},
      {"measurement": "IC50", "setting": "PKC eta (PKCh)", "result": "> 50", "unit": "µM"},
      {"measurement": "IC50", "setting": "PKC alpha (PKCa)", "result": "> 50", "unit": "µM"},
      {"measurement": "Effect on PKCβ1 protein levels", "setting": "[6]", "result": "did not impact PKCβ1 protein levels"},
      {"measurement": "Effect on insulin induced AKT^Ser473 phosphorylation", "setting": "[6]", "result": "did not inhibit this phosphorylation"}
    ]}
  ]
}
